Reference: PMC11187260, “Unraveling the interconversion pharmacokinetics and oral bioavailability of the major ginger constituents: [6]-gingerol, [6]-shogaol, and zingerone after single-dose administration in rats” (Frontiers in Pharmacology, 2024)

Assays:
Assay type in all cases: in vivo, Female Sprague Dawley rats
[1] = Pharmacokinetics and oral bioavailability after single oral administration (30 mg/kg), plasma LC-MS/MS; conditions: for AUC(0-t) / AUC(0-∞) / Cmax (obs): mean ± SD n=6; for Tmax (obs): median [IQR]
Protocol: (§1) This study is composed of two sections; the first section involves an investigation of the interconversion pharmacokinetics of the pure compounds, and the second focuses on tissue distribution. All rats were transferred to metabolic cages and fasted overnight for at least 10 h. The animals were then randomly divided into four groups (6 rats/group) to receive a single intravenous (i.v.) administration of either 6G, 6S, zingerone, or vehicle via the lateral tail vein at a dosage of 3 mg/kg. After a 7-week washout period, the rats received 30 mg/kg of the same test compounds through a single oral (p.o.) administration. Following each administration, blood samples (300 µL) were collected in heparinized tubes from the lateral tail vein (while rats were under anesthesia with isoflurane) at specified time points: 0.083, 0.25, 0.5, 1, 1.5, 2, 3, 4, 6, 8, and 24 h after administration. An additional 1 mL of blood sample was collected from each rat at pre-dose (0 h) and post-dose (24 h) for clinical laboratory testing and safety evaluation. All heparinized blood samples were initially centrifuged at 5,000 × g, 4 °C, for 10 min. Subsequently, the plasma was carefully transferred to a cryotube as an aliquot sample and then stored at −40 °C until analysis. Urine and feces were collected during the intervals of 0–24 h and 24–48 h post-dosing, and their weights and volumes were documented. All collected urine and feces samples were stored at −40 °C until analysis.
Plasma samples were processed through protein precipitation. In brief, 50 µL of plasma was mixed with 200 µL of methanol containing 50 ng/mL of IS (dihydrocapsaicin). The mixtures were vortexed and centrifuged at 14,000 × g at 4 °C for 10 min. The supernatant was filtered through a […] PVDF membrane (Chrome Tech, MN, USA) before analysis.
(§2) Investigation of glucuronide conjugations followed a previously published method with some modification ([Wang et al., 2017]; [Songvut et al., 2023]). A 50 μL aliquot of plasma, urine, or feces sample was incubated at 37 °C for a minimum of 30 min with 50 μL of β-glucuronidase (3,000 U/mL) in a sodium phosphate buffer (pH 6.8). For sample extraction, 150 μL of methanol containing 50 μg/L of IS was pipetted into the pre-incubated samples. Subsequently, the mixtures were vortexed for 10 min and then centrifuged at 14,000 × g at 4 °C for 10 min. The supernatants were filtered through a […] PVDF membrane (Chrome Tech, MN, United States) and then analyzed using the validated LC-MS/MS method.
Quantitative analysis was conducted using liquid chromatography-tandem mass spectrometry (LC-MS/MS) with a Nexera X2 LCMS-8060NX instrument (Shimadzu, Japan). The instrument included a CBM-40lite system controller, CTO-40C column oven, SIL-40C XR autosampler, LC-40D XR solvent pump unit, FCV-DGU-403 degasser, and 20AH2 switching valve. The LC-MS/MS system was operated with a binary pump and equipped with a triple quadrupole mass spectrometer.
Pharmacokinetic parameters were assessed using PK Solutions software (version 2.0) with non-compartmental analysis. The AUC was calculated using the Linear-Log Trapezoidal Method. The maximum plasma concentration (Cmax) and time to reach maximum plasma concentration (Tmax) were taken directly from the graph.
(§3) Plasma concentration-time profiles were plotted using GraphPad Prism 9.3.0 (GraphPad Software, USA). The absolute oral bioavailability was calculated as follows: F = (AUC p.o./dose p.o.)/(AUC i.v./dose i.v.). The percentage recovery of each administered compound was calculated as the total amount of the drug found in urine or feces divided by the administered dose. The tissue-to-plasma concentration ratios (K p) were calculated by dividing the concentration in the tissue by the corresponding plasma concentration at the respective sampling time point.

[2] = Percent recovery in urine and feces after intravenous or oral administration; conditions: % of administered dose
Protocol: as §1
Urine samples were centrifuged, and 50 µL of urine was extracted with 200 µL of 100% methanol. The mixture was vortexed for 10 min and subsequently centrifuged at 14,000 × g at 4 °C for 10 min. Feces and organs were weighed and homogenized with methanol (50:50% w/v). The supernatants of the extracted urine, feces, and organs were also filtered through a […] PVDF membrane (Chrome Tech, MN, USA) before analysis.
as §2, §3

[3] = Pharmacokinetics after single intravenous administration (3 mg/kg), plasma LC-MS/MS; conditions: mean ± SD n=6
Protocol: This study is composed of two sections; the first section involves an investigation of the interconversion pharmacokinetics of the pure compounds, and the second focuses on tissue distribution. All rats were transferred to metabolic cages and fasted overnight for at least 10 h. The animals were then randomly divided into four groups (6 rats/group) to receive a single intravenous (i.v.) administration of either 6G, 6S, zingerone, or vehicle via the lateral tail vein at a dosage of 3 mg/kg. After a 7-week washout period, the rats received 30 mg/kg of the same test compounds through a single oral (p.o.) administration. Following each administration, blood samples (300 µL) were collected in heparinized tubes from the lateral tail vein (while rats were under anesthesia with isoflurane) at specified time points: 0.083, 0.25, 0.5, 1, 1.5, 2, 3, 4, 6, 8, and 24 h after administration. An additional 1 mL of blood sample was collected from each rat at pre-dose (0 h) and post-dose (24 h) for clinical laboratory testing and safety evaluation. All heparinized blood samples were initially centrifuged at 5,000 × g, 4 °C, for 10 min. Subsequently, the plasma was carefully transferred to a cryotube as an aliquot sample and then stored at −40 °C until analysis. Urine and feces were collected during the intervals of 0–24 h and 24–48 h post-dosing, and their weights and volumes were documented. All collected urine and feces samples were stored at −40 °C until analysis. Plasma samples were processed through protein precipitation. In brief, 50 µL of plasma was mixed with 200 µL of methanol containing 50 ng/mL of IS (dihydrocapsaicin). The mixtures were vortexed and centrifuged at 14,000 × g at 4 °C for 10 min. The supernatant was filtered through a […] PVDF membrane (Chrome Tech, MN, USA) before analysis. Investigation of glucuronide conjugations followed a previously published method with some modification ([Wang et al., 2017]; [Songvut et al., 2023]). A 50 μL aliquot of plasma, urine, or feces sample was incubated at 37 °C for a minimum of 30 min with 50 μL of β-glucuronidase (3,000 U/mL) in a sodium phosphate buffer (pH 6.8). For sample extraction, 150 μL of methanol containing 50 μg/L of IS was pipetted into the pre-incubated samples. Subsequently, the mixtures were vortexed for 10 min and then centrifuged at 14,000 × g at 4 °C for 10 min. The supernatants were filtered through a […] PVDF membrane (Chrome Tech, MN, United States) and then analyzed using the validated LC-MS/MS method. Quantitative analysis was conducted using liquid chromatography-tandem mass spectrometry (LC-MS/MS) with a Nexera X2 LCMS-8060NX instrument (Shimadzu, Japan). The instrument included a CBM-40lite system controller, CTO-40C column oven, SIL-40C XR autosampler, LC-40D XR solvent pump unit, FCV-DGU-403 degasser, and 20AH2 switching valve. The LC-MS/MS system was operated with a binary pump and equipped with a triple quadrupole mass spectrometer. Pharmacokinetic parameters were assessed using PK Solutions software (version 2.0) with non-compartmental analysis. The AUC was calculated using the Linear-Log Trapezoidal Method. The maximum plasma concentration (Cmax) and time to reach maximum plasma concentration (Tmax) were taken directly from the graph.

[4] = plasma analyte after [6]-gingerol p.o. 30 mg/kg
[5] = intravenous administration 3 mg/kg of parent compound
[6] = oral administration 30 mg/kg of parent compound
[7] = plasma analyte after [6]-gingerol i.v. 3 mg/kg
[8] = plasma analyte after zingerone p.o. 30 mg/kg
[9] = plasma analyte after zingerone i.v. 3 mg/kg
[10] = plasma analyte after [6]-shogaol p.o. 30 mg/kg
[11] = plasma analyte after [6]-shogaol i.v. 3 mg/kg

[6]-gingerol glucuronide
AUC(0-t) [1, 4]: 549.22 ± 272.42 ng·h/mL | AUC(0-∞) [1, 4]: 603.05 ± 268.67 ng·h/mL | Cmax (obs) [1, 4]: 539.42 ± 377.66 ng/mL | Tmax (obs) [1, 4]: 0.25 [0.00] h | % Recovery excretion, urine T 0–24 h [2, 5]: 5.712 ± 2.768% | % Recovery excretion, urine T 24–48 h [2, 5]: 0.146 ± 0.073% | % Recovery excretion, urine T 0–24 h [2, 6]: 3.416 ± 1.735% | % Recovery excretion, urine T 24–48 h [2, 6]: 0.036 ± 0.027% | AUC(0-t) [3, 7]: 11,087.06 ± 7,432.61 ng-h/mL | AUC(0-∞) [3, 7]: 11,087.09 ± 7,432.598 ng-h/mL

COc1cc(CCC(C)=O)ccc1O[C@@H]1O[C@H](C(=O)O)[C@@H](O)[C@H](O)[C@H]1O [zingerone glucuronide]
AUC(0–∞) of glucuronide compared to AUC(0–∞) of unconjugated compound ([1]; after zingerone oral administration 30 mg/kg): 6 fold | AUC(0-t) [1, 8]: 5847.24 ± 134.65 ng·h/mL | AUC(0-∞) [1, 8]: 5847.24 ± 134.65 ng·h/mL | Cmax (obs) [1, 8]: 4593.37 ± 1192.68 ng/mL | Tmax (obs) [1, 8]: 0.25 [0.00] h | % Recovery excretion, urine T 0–24 h [2, 5]: 7.396 ± 6.349% | % Recovery excretion, urine T 24–48 h [2, 5]: <0.001% | % Recovery excretion, urine T 0–24 h [2, 6]: 4.245 ±3.009% | % Recovery excretion, urine T 24–48 h [2, 6]: 0.166 ± 0.075% | AUC(0-t) [3, 9]: 12,873.76 ± 12,580.54 ng-h/mL | AUC(0-∞) [3, 9]: 12,903.70 ± 12,585.11 ng-h/mL

CCCCC/C=C/C(=O)CCc1ccc(O[C@@H]2O[C@H](C(=O)O)[C@@H](O)[C@H](O)[C@H]2O)c(OC)c1 [[6]-shogaol glucuronide]
AUC(0-t) [1, 10]: 11.88 ± 1.87 ng·h/mL | AUC(0-∞) [1, 10]: 11.89 ± 1.87 ng·h/mL | Cmax (obs) [1, 10]: 18.54 ± 6.93 ng/mL | Tmax (obs) [1, 10]: 0.375 [0.25] h | % Recovery excretion, feces T 0–24 h [2, 5]: 0.003 ± 0.003% | % Recovery excretion, feces T 24–48 h [2, 5]: 0.004 ± 0.001% | % Recovery excretion, urine T 0–24 h [2, 5]: 0.153 ± 0.112% | % Recovery excretion, urine T 24–48 h [2, 5]: <0.001% | % Recovery excretion, urine T 0–24 h [2, 6]: 0.042 ± 0.037% | % Recovery excretion, urine T 24–48 h [2, 6]: <0.001% | AUC(0-t) [3, 11]: 7,966.49 ± 3,782.71 ng-h/mL | AUC(0-∞) [3, 11]: 7,974.90 ± 3,786.32 ng-h/mL
